Here are results for 7 cell lines from the supplement of paper PMC10307832.

Holding throughout (experiment): relative viability (nuclei count vs DMSO), 5 days (fraction); higher = more cells survive
Compound in the assay “XMD14-99 + Crizotinib”: CN1CCN(CC1)C2=CC(=C(C=C2)NC3=NC(=C(S3)C(=O)C4=C(C=CC=C4Cl)Cl)N)OC [XMD14-99] + C[C@@H](Oc1cc(-c2cnn(C3CCNCC3)c2)cnc1N)c1c(Cl)ccc(F)c1Cl [Crizotinib] (partner 1 µM)
An outline of the steps:
(§1)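 Relative viability was taken as the ratio of nuclei in treated wells to nuclei in vehicle wells. Lung cancer cell lines in 1536-well plates received compounds by pin tool one day after seeding, either one drug alone or a fixed anchor-drug dose plus five library-drug doses (not always all listed) in √10 steps. Nuclei were counted on 4× images after 5 days of treatment, and values are medians of duplicate plates.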

Compound in the assay “XMD14-99 + Linsitinib”: CN1CCN(CC1)C2=CC(=C(C=C2)NC3=NC(=C(S3)C(=O)C4=C(C=CC=C4Cl)Cl)N)OC [XMD14-99] + C[C@]1(O)C[C@@H](c2nc(-c3ccc4ccc(-c5ccccc5)nc4c3)c3c(N)nccn32)C1 [Linsitinib] (partner 1 µM)
The procedure, abridged:
as §1

Compound in the assay “XMD14-99 + Pictilisib”: CN1CCN(CC1)C2=CC(=C(C=C2)NC3=NC(=C(S3)C(=O)C4=C(C=CC=C4Cl)Cl)N)OC [XMD14-99] + CS(=O)(=O)N1CCN(Cc2cc3nc(-c4cccc5[nH]ncc45)nc(N4CCOCC4)c3s2)CC1 [Pictilisib] (partner 1 µM)
An outline of the steps: as §1

Compound in the assay “XMD14-99 + Tozasertib”: CN1CCN(CC1)C2=CC(=C(C=C2)NC3=NC(=C(S3)C(=O)C4=C(C=CC=C4Cl)Cl)N)OC [XMD14-99] + Cc1cc(Nc2cc(N3CCN(C)CC3)nc(Sc3ccc(NC(=O)C4CC4)cc3)n2)n[nH]1 [Tozasertib] (partner 0.1 µM)
The procedure, abridged:
as §1

Compound in the assay “XMD14-99 + OSI-027”: CN1CCN(CC1)C2=CC(=C(C=C2)NC3=NC(=C(S3)C(=O)C4=C(C=CC=C4Cl)Cl)N)OC [XMD14-99] + COc1cccc2cc(-c3nc([C@H]4CC[C@H](C(=O)O)CC4)n4ncnc(N)c34)[nH]c12 [OSI-027] (partner 0.5 µM)
An outline of the steps: as §1

In the case of NCI-H1755, the relative viability in the assay with XMD14-99 + Crizotinib (first compound 0.08 µM) amounted to 0.846; in the assay with XMD14-99 + Crizotinib (first compound 0.8 µM), 0.878; with XMD14-99 + Crizotinib (first compound 2.53 µM) it was 0.825; with XMD14-99 + Crizotinib (first compound 8 µM), 0.614; in the assay with XMD14-99 + Linsitinib (first compound 0.08 µM), 1.02; with XMD14-99 + Linsitinib (first compound 0.8 µM) it was 0.989. For the same cell line, the relative viability came to 1.02 with XMD14-99 + Linsitinib (first compound 2.53 µM); 0.736 in the assay with XMD14-99 + Linsitinib (first compound 8 µM); 0.404 with XMD14-99 + Pictilisib (first compound 0.08 µM); 0.401 in the assay with XMD14-99 + Pictilisib (first compound 0.8 µM); 0.426 with XMD14-99 + Pictilisib (first compound 2.53 µM); 0.295 with XMD14-99 + Pictilisib (first compound 8 µM). The relative viability stood at 0.519 with XMD14-99 + Tozasertib (first compound 0.08 µM); 0.531 in the assay with XMD14-99 + Tozasertib (first compound 0.8 µM); 0.478 with XMD14-99 + Tozasertib (first compound 2.53 µM); 0.512 with XMD14-99 + Tozasertib (first compound 8 µM); 0.709 with XMD14-99 + OSI-027 (first compound 0.08 µM); 0.712 with XMD14-99 + OSI-027 (first compound 0.8 µM). The relative viability was found to be 0.668 in the assay with XMD14-99 + OSI-027 (first compound 2.53 µM) and 0.517 with XMD14-99 + OSI-027 (first compound 8 µM).

Consider NCI-H1915, for which the relative viability with XMD14-99 + Crizotinib (first compound 0.08 µM) came out at 1.02; in the assay with XMD14-99 + Crizotinib (first compound 0.8 µM), 0.877; with XMD14-99 + Crizotinib (first compound 2.53 µM) it was 0.812; with XMD14-99 + Crizotinib (first compound 8 µM), 0.805; with XMD14-99 + Linsitinib (first compound 0.08 µM) it was 1.14; with XMD14-99 + Linsitinib (first compound 0.8 µM), 1.04. Further, the relative viability with XMD14-99 + Linsitinib (first compound 2.53 µM) stood at 0.951; with XMD14-99 + Linsitinib (first compound 8 µM) it was 0.965; in the assay with XMD14-99 + Pictilisib (first compound 0.08 µM), 0.927; in the assay with XMD14-99 + Pictilisib (first compound 0.8 µM), 0.934; with XMD14-99 + Pictilisib (first compound 2.53 µM), 0.902; with XMD14-99 + Pictilisib (first compound 8 µM) it was 0.595. The relative viability came to 0.423 with XMD14-99 + Tozasertib (first compound 0.08 µM); 0.42 with XMD14-99 + Tozasertib (first compound 0.8 µM); 0.428 with XMD14-99 + Tozasertib (first compound 2.53 µM); 0.386 with XMD14-99 + Tozasertib (first compound 8 µM); 0.629 in the assay with XMD14-99 + OSI-027 (first compound 0.08 µM); 0.548 in the assay with XMD14-99 + OSI-027 (first compound 0.8 µM). The values for the relative viability with XMD14-99 + OSI-027 (first compound 2.53 µM) and in the assay with XMD14-99 + OSI-027 (first compound 8 µM) were 0.487 and 0.415, respectively.

Take NCI-H1944: the relative viability is 1.25 with XMD14-99 + Crizotinib (first compound 0.08 µM); 1.13 with XMD14-99 + Crizotinib (first compound 0.8 µM); 0.992 with XMD14-99 + Crizotinib (first compound 2.53 µM); 0.857 with XMD14-99 + Crizotinib (first compound 8 µM); 1.23 in the assay with XMD14-99 + Linsitinib (first compound 0.08 µM); 1.19 with XMD14-99 + Linsitinib (first compound 0.8 µM). The relative viability is 1.12 in the assay with XMD14-99 + Linsitinib (first compound 2.53 µM); 1.04 with XMD14-99 + Linsitinib (first compound 8 µM); 0.325 with XMD14-99 + Pictilisib (first compound 0.08 µM); 0.335 with XMD14-99 + Pictilisib (first compound 0.8 µM); 0.337 in the assay with XMD14-99 + Pictilisib (first compound 2.53 µM); 0.269 with XMD14-99 + Pictilisib (first compound 8 µM). The relative viability in the assay with XMD14-99 + Tozasertib (first compound 0.08 µM) amounted to 0.226; in the assay with XMD14-99 + Tozasertib (first compound 0.8 µM) it was 0.256; in the assay with XMD14-99 + Tozasertib (first compound 2.53 µM), 0.255; with XMD14-99 + Tozasertib (first compound 8 µM), 0.235; with XMD14-99 + OSI-027 (first compound 0.08 µM) it was 0.382; with XMD14-99 + OSI-027 (first compound 0.8 µM) it was 0.44. Further, the values for the relative viability in the assay with XMD14-99 + OSI-027 (first compound 2.53 µM) and with XMD14-99 + OSI-027 (first compound 8 µM) were 0.358 and 0.278, respectively.

For NCI-H1975, the relative viability in the assay with XMD14-99 + Crizotinib (first compound 0.08 µM) is 0.934; with XMD14-99 + Crizotinib (first compound 0.8 µM), 0.984; with XMD14-99 + Crizotinib (first compound 2.53 µM) it was 0.902; in the assay with XMD14-99 + Crizotinib (first compound 8 µM), 0.74; with XMD14-99 + Linsitinib (first compound 0.08 µM), 0.872; with XMD14-99 + Linsitinib (first compound 0.8 µM), 0.97. For the same cell line, the relative viability with XMD14-99 + Linsitinib (first compound 2.53 µM) amounted to 0.81; with XMD14-99 + Linsitinib (first compound 8 µM), 0.663; in the assay with XMD14-99 + Pictilisib (first compound 0.08 µM), 0.286; with XMD14-99 + Pictilisib (first compound 0.8 µM), 0.317; with XMD14-99 + Pictilisib (first compound 2.53 µM), 0.257; with XMD14-99 + Pictilisib (first compound 8 µM) it was 0.197. For the same cell line, the relative viability with XMD14-99 + Tozasertib (first compound 0.08 µM) was found to be 0.693; with XMD14-99 + Tozasertib (first compound 0.8 µM) it was 0.733; with XMD14-99 + Tozasertib (first compound 2.53 µM), 0.656; with XMD14-99 + Tozasertib (first compound 8 µM), 0.281; with XMD14-99 + OSI-027 (first compound 0.08 µM) it was 0.825; with XMD14-99 + OSI-027 (first compound 0.8 µM), 0.822. The relative viability with XMD14-99 + OSI-027 (first compound 2.53 µM) amounted to 0.653; in the assay with XMD14-99 + OSI-027 (first compound 8 µM), 0.535.

For NCI-H1993, the relative viability with XMD14-99 + Crizotinib (first compound 0.08 µM) turned out to be 0.952; in the assay with XMD14-99 + Crizotinib (first compound 0.8 µM) it was 0.847; with XMD14-99 + Crizotinib (first compound 2.53 µM) it was 0.792; in the assay with XMD14-99 + Crizotinib (first compound 8 µM), 0.68; in the assay with XMD14-99 + Linsitinib (first compound 0.08 µM), 0.684; with XMD14-99 + Linsitinib (first compound 0.8 µM), 0.66. Also, the relative viability amounted to 0.659 with XMD14-99 + Linsitinib (first compound 2.53 µM); 0.749 with XMD14-99 + Linsitinib (first compound 8 µM); 0.888 with XMD14-99 + Pictilisib (first compound 0.08 µM); 0.759 with XMD14-99 + Pictilisib (first compound 0.8 µM); 0.766 with XMD14-99 + Pictilisib (first compound 2.53 µM); 0.798 in the assay with XMD14-99 + Pictilisib (first compound 8 µM). In addition, the relative viability in the assay with XMD14-99 + Tozasertib (first compound 0.08 µM) came out at 0.602; in the assay with XMD14-99 + Tozasertib (first compound 0.8 µM), 0.68; with XMD14-99 + Tozasertib (first compound 2.53 µM), 0.549; in the assay with XMD14-99 + Tozasertib (first compound 8 µM), 0.571; in the assay with XMD14-99 + OSI-027 (first compound 0.08 µM), 0.575; in the assay with XMD14-99 + OSI-027 (first compound 0.8 µM), 0.555. Further, the relative viability with XMD14-99 + OSI-027 (first compound 2.53 µM) and with XMD14-99 + OSI-027 (first compound 8 µM) was 0.53 throughout.

Consider NCI-H2009, for which the relative viability is 1 with XMD14-99 + Crizotinib (first compound 0.08 µM); 0.939 with XMD14-99 + Crizotinib (first compound 0.8 µM); 0.997 with XMD14-99 + Crizotinib (first compound 2.53 µM); 0.767 with XMD14-99 + Crizotinib (first compound 8 µM); 1.2 with XMD14-99 + Linsitinib (first compound 0.08 µM); 1.15 in the assay with XMD14-99 + Linsitinib (first compound 0.8 µM). Besides, the relative viability worked out at 1.19 with XMD14-99 + Linsitinib (first compound 2.53 µM); 0.91 with XMD14-99 + Linsitinib (first compound 8 µM); 0.752 with XMD14-99 + Pictilisib (first compound 0.08 µM); 0.948 with XMD14-99 + Pictilisib (first compound 0.8 µM); 0.85 with XMD14-99 + Pictilisib (first compound 2.53 µM); 0.556 with XMD14-99 + Pictilisib (first compound 8 µM). Moreover, the relative viability worked out at 0.683 with XMD14-99 + Tozasertib (first compound 0.08 µM); 0.617 in the assay with XMD14-99 + Tozasertib (first compound 0.8 µM); 0.541 with XMD14-99 + Tozasertib (first compound 2.53 µM); 0.399 in the assay with XMD14-99 + Tozasertib (first compound 8 µM); 0.611 with XMD14-99 + OSI-027 (first compound 0.08 µM); 0.607 with XMD14-99 + OSI-027 (first compound 0.8 µM). Also, the figures for the relative viability with XMD14-99 + OSI-027 (first compound 2.53 µM) and with XMD14-99 + OSI-027 (first compound 8 µM) were 0.508 and 0.273, respectively.

On to NCI-H2023, for which the relative viability worked out at 0.731 in the assay with XMD14-99 + Crizotinib (first compound 0.08 µM); 0.648 with XMD14-99 + Crizotinib (first compound 0.8 µM); 0.667 with XMD14-99 + Crizotinib (first compound 2.53 µM); 0.495 in the assay with XMD14-99 + Crizotinib (first compound 8 µM); 0.662 in the assay with XMD14-99 + Linsitinib (first compound 0.08 µM); 0.551 with XMD14-99 + Linsitinib (first compound 0.8 µM). Also, the relative viability in the assay with XMD14-99 + Linsitinib (first compound 2.53 µM) worked out at 0.63; with XMD14-99 + Linsitinib (first compound 8 µM) it was 0.514; with XMD14-99 + Pictilisib (first compound 0.08 µM), 0.238; in the assay with XMD14-99 + Pictilisib (first compound 0.8 µM), 0.247; in the assay with XMD14-99 + Pictilisib (first compound 2.53 µM), 0.26; with XMD14-99 + Pictilisib (first compound 8 µM), 0.157. For the same cell line, the relative viability in the assay with XMD14-99 + Tozasertib (first compound 0.08 µM) is 0.396; with XMD14-99 + Tozasertib (first compound 0.8 µM), 0.332; with XMD14-99 + Tozasertib (first compound 2.53 µM), 0.302; in the assay with XMD14-99 + Tozasertib (first compound 8 µM), 0.185; with XMD14-99 + OSI-027 (first compound 0.08 µM) it was 0.42; in the assay with XMD14-99 + OSI-027 (first compound 0.8 µM), 0.427. Besides, the relative viability was 0.299 with XMD14-99 + OSI-027 (first compound 2.53 µM) and 0.209 with XMD14-99 + OSI-027 (first compound 8 µM).
